Laboratory results reported in patent publication US11542257B2, “Arylnaphthalene compounds as vacuolar-ATPase inhibitors and the use thereof” (priority 2018, dated 2023).
Where two headings read alike, the source gives them in different places.

Assays:
[1] = tested on: endosomal acidification in A549 cells; experiment: Inhibition of cellular endosomal acidification, acridine orange (AO), A549 cells; assay type: cell-based
[2] = tested on: Ebolavirus (EBOV); experiment: organism not typed; assay type: cell-based; details: for IC50: read-out: EBOV IC50
[3] = tested on: HEK293 cells
[4] = tested on: cytosolic pH of HEK293 cells; experiment: Cytosolic pH, BCECF-AM, HEK293 cells; assay type: cell-based; details: FIG. 1B
[5] = tested on: A549 cells; experiment: Cytotoxicity (MTT), A549 cells; details: read-out: A549 CC50, 72 h, MTT
[6] = tested on: endosomal acidification in HEK293 cells; experiment: cells; assay type: cell-based; details: for IC50: read-out: HEK AO IC50
[7] = tested on: Marburg virus (MARV); assay type: cell-based
[8] = target: T1, V-ATPase (Homo sapiens, UniProt P27449+Q93050); assay type: biochemical
[9] = target: T1, V-ATPase; experiment: Acridine orange quenching in isolated HEK293 vesicles (proton-pumping function of V-ATPase); assay type: biochemical
[10] = Cytotoxicity (MTT), A549 cells; details: human
[11] = tested on: endosomal pH of HEK293 cells; experiment: Intracellular endosomal pH, FITC-dextran, HEK293 cells; assay type: cell-based; details: HEK293, 4 h, 1-3 μM, FIG. 1C
[12] = in vitro; details: human
[13] = tested on: filoviral infection of primary human macrophages (PHM); assay type: cell-based, filovirus; details: read-out: PHM Antiviral IC50

T1 sequence (P27449 whole entry, looked up): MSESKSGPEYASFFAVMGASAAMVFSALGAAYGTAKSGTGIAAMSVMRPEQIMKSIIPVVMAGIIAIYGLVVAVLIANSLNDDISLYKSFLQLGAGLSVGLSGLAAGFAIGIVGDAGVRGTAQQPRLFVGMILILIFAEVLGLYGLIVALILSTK
T1 sequence (Q93050 whole entry, looked up): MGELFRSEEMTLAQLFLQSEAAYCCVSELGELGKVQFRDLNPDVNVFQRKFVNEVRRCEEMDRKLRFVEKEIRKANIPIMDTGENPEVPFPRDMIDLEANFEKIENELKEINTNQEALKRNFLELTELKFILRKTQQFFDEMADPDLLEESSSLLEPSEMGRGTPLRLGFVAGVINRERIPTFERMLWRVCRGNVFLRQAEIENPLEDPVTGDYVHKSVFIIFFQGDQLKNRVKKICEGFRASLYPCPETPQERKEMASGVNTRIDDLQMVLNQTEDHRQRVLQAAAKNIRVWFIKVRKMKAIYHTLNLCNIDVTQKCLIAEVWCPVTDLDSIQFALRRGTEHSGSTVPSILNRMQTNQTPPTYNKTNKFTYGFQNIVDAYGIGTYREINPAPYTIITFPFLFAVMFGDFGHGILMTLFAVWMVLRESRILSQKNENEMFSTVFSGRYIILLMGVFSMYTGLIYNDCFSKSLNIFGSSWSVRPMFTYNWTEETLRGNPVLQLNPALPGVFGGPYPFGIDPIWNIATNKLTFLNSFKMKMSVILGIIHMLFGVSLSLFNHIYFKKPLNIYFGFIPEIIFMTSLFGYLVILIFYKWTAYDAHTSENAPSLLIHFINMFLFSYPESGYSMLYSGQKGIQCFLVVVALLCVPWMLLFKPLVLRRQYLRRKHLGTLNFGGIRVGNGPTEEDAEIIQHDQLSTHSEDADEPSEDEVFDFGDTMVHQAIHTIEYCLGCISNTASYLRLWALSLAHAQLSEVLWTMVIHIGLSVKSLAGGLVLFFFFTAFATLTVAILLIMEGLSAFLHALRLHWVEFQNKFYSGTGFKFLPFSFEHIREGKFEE

Compound | IC50 [1] [nM] | IC50 [2] [nM] | IC50 [6] [nM] | IC50 ([2]; HeLa) [nM] | IC50 ([6]; Homo sapiens, HEK293, 4 h) [nM] | inhibition of ATP hydrolysis, in words [8] | CC50 at 72 h [10] [nM] | CC50 [12] [nM] | also measured
CO/C1=C\C(C)=C\[C@@H](C)[C@@H](O)[C@@H](C)C/C(C)=C/C=C/[C@H](OC)[C@@H]([C@@H](C)[C@@H](O)[C@H](C)[C@@]2(O)C[C@@H](O)[C@H](C)[C@@H](C(C)C)O2)OC1=O [Baf A1, bafilomycin A1, reference compound] | 21.3 ± 2.55 | 14.9 ± 8.93 | 40.5 ± 3.31 |  |  |  |  |  | CC50 [3]: 320 ± 42 nM; change in cytosolic pH compared to the vehicle treated control [4]: no significant change; CC50 [5]: 479 ± 266 nM
COc1cc2c(OC(C)=O)c3c(c(-c4ccc5c(c4)OCO5)c2cc1OC)C(=O)N(CCO)C3=O [Compound 1e, 9-(benzo[d][1,3]dioxol-5-yl)-2-(2-hydroxyethyl)-6,7-dimethoxy-1,3-dioxo-2,3-dihydro-1H-benzo[f]isoindol-4-yl acetate] |  |  |  | 5400 ± 2920 | > 10000 |  |  |  | active in screen for inhibition of ebolavirus infection [2]: active; effect on endosomal acidification (AO fluorescence ratio), in words [6]: did not cause a significant change in the fluorescence ratio
COc1cc2c(O)c3c(c(-c4ccc5c(c4)OCO5)c2cc1OC)C(=O)OC3 [Compound 2a, 9-(benzo[d][1,3]dioxol-5-yl)-4-hydroxy-6,7-dimethoxynaphtho[2,3-c]furan-1(3H)-one, reference compound] | 149 ± 20.5 | 678 ± 161 | 476 ± 60.1 |  |  | inhibited ATP hydrolysis to a similar extent | 50100 ± 15500 |  | IC50 [7]: 1770 ± 80 nM; change in cytosolic pH compared to the vehicle treated control [4]: no significant change; times less potent than bafilomycin A1 (V-ATPase-mediated fluorescent quenching) [9]: about 7.5 times; endosomal pH after treatment [11]: ~7 pH
COc1cc2c(OC)c3c(c(-c4ccc5c(c4)OCO5)c2cc1OC)C(=O)OC3 [Compound 2b, 9-(benzo[d][1,3]dioxol-5-yl)-4,6,7-trimethoxynaphtho[2,3-c]furan-1(3H)-one] | 58.2 ± 8.76 | 171 ± 40.2 | 265 ± 58.6 |  |  | inhibited ATP hydrolysis to a similar extent | > 100000 | 5730 ± 841 | 
CCOc1c2c(c(-c3ccc4c(c3)OCO4)c3cc(OC)c(OC)cc13)C(=O)OC2 [Compound 2c, 9-(benzo[d][1,3]dioxol-5-yl)-4-ethoxy-6,7-dimethoxynaphtho[2,3-c]furan-1(3H)-one] | 52.4 ± 19.3 | 112 ± 14.7 | 254 ± 49 |  |  | inhibited ATP hydrolysis to a similar extent | 77400 ± 11000 | 2380 | 
C#CCOc1c2c(c(-c3ccc4c(c3)OCO4)c3cc(OC)c(OC)cc13)C(=O)OC2 [Compound 2d, 9-(benzo[d][1,3]dioxol-5-yl)-6,7-dimethoxy-4-(prop-2-yn-1-yloxy)naphtho[2,3-c]furan-1(3H)-one] |  |  |  | 175 ± 21.7 | 263 ± 46.6 |  |  | 2040 | 
C#CCCCOc1c2c(c(-c3ccc4c(c3)OCO4)c3cc(OC)c(OC)cc13)C(=O)OC2 [Compound 2e, 9-(benzo[d][1,3]dioxol-5-yl)-6,7-dimethoxy-4-(pent-4-yn-1-yloxy)naphtho[2,3-c]furan-1(3H)-one] | 84.8 ± 11.9 | 73.2 ± 11.9 | 102 ± 19 |  |  | inhibited ATP hydrolysis to a similar extent | > 100000 |  | IC50 [13]: 240 nM; IC50 [7]: 402 ± 45.9 nM; times better activity than Bafilomycin A1 (proton pumping activity of V-ATPase) [9]: 2 times; times better activity than diphyllin (proton pumping activity of V-ATPase) [9]: 17 times
COc1cc2c(OCCCC#N)c3c(c(-c4ccc5c(c4)OCO5)c2cc1OC)C(=O)OC3 [Compound 2f, 4-((9-(benzo[d][1,3]dioxol-5-yl)-6,7-dimethoxy-1-oxo-1,3-dihydronaphtho[2,3-c]furan-4-yl)oxy)butanenitrile] |  |  |  | 93.1 ± 26.8 | 98.7 ± 29.5 |  |  | 3310 ± 740 | 
COc1cc2c(OCCCN3CCOCC3)c3c(c(-c4ccc5c(c4)OCO5)c2cc1OC)C(=O)OC3 [Compound 2g, 9-(benzo[d][1,3]dioxol-5-yl)-6,7-dimethoxy-4-(3-morpholinopropoxy)naphtho[2,3-c]furan-1(3H)-one] | 56.1 ± 15.9 | 107 ± 23.7 | 74.3 ± 23.9 |  |  | inhibited ATP hydrolysis to a similar extent | > 100000 |  | IC50 [13]: 57.7 ± 8.6 nM; IC50 [7]: 135 ± 11.4 nM; times better activity than diphyllin (proton pumping activity of V-ATPase) [9]: 7 times
CCOC(=O)CN1CCN(CCCOc2c3c(c(-c4ccc5c(c4)OCO5)c4cc(OC)c(OC)cc24)C(=O)OC3)CC1 [Compound 2h, ethyl 2-(4-(3-((9-(benzo[d][1,3]dioxol-5-yl)-6,7-dimethoxy-1-oxo-1,3-dihydronaphtho[2,3-c]furan-4-yl)oxy)propyl)piperazin-1-yl)acetate] | 101 ± 13.8 | 132 ± 32.3 | 172 ± 40.6 |  |  | inhibited ATP hydrolysis to a similar extent | > 100000 |  | IC50 [13]: 256 nM; IC50 [7]: 81.6 ± 28.7 nM
COc1cc2c(OCCCN3CCN(CCO)CC3)c3c(c(-c4ccc5c(c4)OCO5)c2cc1OC)C(=O)OC3 [Compound 2i, 9-(benzo[d][1,3]dioxol-5-yl)-4-(3-(4-(2-hydroxyethyl)piperazin-1-yl)propoxy)-6,7-dimethoxynaphtho[2,3-c]furan-1(3H)-one] |  | 76.2 ± 14.6 | 104 ± 21.2 |  |  |  |  |  | 
COc1cc2c(O)c3c(c(-c4ccc5c(c4)OCO5)c2cc1OC)C(=O)N(N)C3 [Compound 3a, 2-amino-9-(benzo[d][1,3]dioxol-5-yl)-4-hydroxy-6,7-dimethoxy-2,3-dihydro-1H-benzo[f]isoindol-1-one] |  |  |  | 3940 ± 604 | 9060 ± 893 |  | 28700 ± 16600 | 48900 ± 3610 | IC50 ([1]; Homo sapiens): 8110 ± 670 nM; effect on endosomal acidification (AO fluorescence ratio), in words [6]: moderately inhibited acidification
COc1cc2c(O)c3c(c(-c4ccc5c(c4)OCO5)c2cc1OC)C(=O)N(/N=C/c1ccccc1)C3 [Compound 3b, (E)-9-(benzo[d][1,3]dioxol-5-yl)-2-(benzylideneamino)-4-hydroxy-6,7-dimethoxy-2,3-dihydro-1H-benzo[f]isoindol-1-one] |  |  |  | 6630 ± 437 | > 10000 |  |  |  | 
COc1cc2c(O)c3c(c(-c4ccc5c(c4)OCO5)c2cc1OC)C(=O)N(/N=C/c1cccnc1)C3 [Compound 3c, (E)-9-(benzo[d][1,3]dioxol-5-yl)-4-hydroxy-6,7-dimethoxy-2-((pyridin-3-ylmethylene)amino)-2,3-dihydro-1H-benzo[f]isoindol-1-one] | 11600 | 4480 ± 467 | 8710 ± 769 |  |  |  | 50100 ± 27700 | 49900 ± 15900 | times less effective than diphyllin (AO quenching) [9]: 2 times
COc1cc2c(O)c3c(c(-c4ccc5c(c4)OCO5)c2cc1OC)C(=O)N(/N=C/c1ccc(Cl)cc1)C3 [Compound 3d, (E)-9-(benzo[d][1,3]dioxol-5-yl)-2-((4-chlorobenzylidene)amino)-4-hydroxy-6,7-dimethoxy-2,3-dihydro-1H-benzo[f]isoindol-1-one] | 8440 ± 367 | 1170 ± 518 | 9930 ± 140 |  |  |  | 78000 ± 26400 | 28400 ± 2710 | times less effective than diphyllin (AO quenching) [9]: 4 times
COc1cc2c(O)c3c(c(-c4ccc5c(c4)OCO5)c2cc1OC)C(=O)N(/N=C/c1ccc(C#N)cc1)C3 [Compound 3g, (E)-4-(((9-(benzo[d][1,3]dioxol-5-yl)-4-hydroxy-6,7-dimethoxy-1-oxo-1,3-dihydro-2H-benzo[f]isoindol-2-yl)imino)methyl)benzonitrile] |  |  |  | 1690 ± 233 | > 10000 |  |  |  | 
COc1cc2c(O)c3c(c(-c4ccc5c(c4)OCO5)c2cc1OC)C(=O)N(/N=C/c1c(F)c(F)c(F)c(F)c1F)C3 [Compound 3h, (E)-9-(benzo[d][1,3]dioxol-5-yl)-4-hydroxy-6,7-dimethoxy-2-(((perfluorophenyl)methylene)amino)-2,3-dihydro-1H-benzo[f]isoindol-1-one] |  |  |  | 8740 ± 2180 | > 10000 |  |  |  | 
